pEC50: −log10 of the molar value.

What all share (assay type): cell-based
For one experiment, the system named is HCT116 cells. Description: Proliferation assay. To be noted: Homo sapiens, HCT-116, 96 h, read-out: Cell EC50 HCT 116.
The subject of a further experiment is HT29 cells. Description: Proliferation assay. The conditions noted are these: Homo sapiens, HT-29, 96 h, read-out: Cell EC50 HT29.
In another experiment the test system is HeLa S3 cells. Put plainly: Proliferation assay. To be noted: Homo sapiens, HeLa S3, 96 h, read-out: Cell EC50 HeLa.
For experiment [1], the system named is monopolar spindle formation. Description: Spindle morphology by indirect immunofluorescence. To be noted: cells arrested in metaphase.

On to `O=C(O)c1ccc(Nc2ncc3c(n2)-c2ccc(Cl)cc2C(c2c(F)cccc2F)=NC3)cc1` [Compound 34, MLN8054], for which the pEC50 with HCT116 cells was 7.30; in the experiment on HT29 cells, 6.16; in the experiment with HeLa S3 cells it was 6.67.
On the same counts, the results for `Cc1cc(Nc2cc(N3CCN(C)CC3)nc(Sc3ccc(NC(=O)C4CC4)cc3)n2)[nH]n1` [Compound 32, VX680] are 7.80, 6.93 and 7.79.
As for `CCN(CCCOc1ccc2c(Nc3cc(CC(=O)Nc4cccc(F)c4)n[nH]3)ncnc2c1)CCOP(=O)(O)O` [Compound 33, AZD1152], the pEC50 in the experiment on HCT116 cells is 7.76; in the experiment with HT29 cells, 6.62; in the experiment with HeLa S3 cells it was 8.42. In experiment [1], the “concentration up to which no significant monopolarity resulted” value is recorded as greater than 500 nM.

One may read the pEC50 as the EC50 on a negative log10 scale, so that one unit is a factor of ten.

Source of the values: PMC3262907 (ACS Chemical Biology, 2011).
